Several values for one entry are separate records, joined by “and”; a condition that tells them apart may be missing. Equal values may be shown once. Toxic doses and inconclusive results are not listed.
System: P388 leukemia ip, CD2F1 mice, survival T/C
Assay: NCI In Vivo Anticancer Drug Screen. Data for tumor model P388 Leukemia (intraperitoneal) in CD2F1 (CDF1) mice
Conditions: endpoint: median survival time, higher = longer survival
In short: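 Mice carrying the transplanted tumor received test compound or vehicle. Survival was recorded in each group, and the value is the treated-group measurement divided by that of the vehicle-treated control group.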

[1] = dose: 100.0 mg/kg/injection, schedule: Q01DX001 (ip), vehicle: saline with Tween-80
[2] = dose: 200.0 mg/kg/injection, schedule: Q01DX001 (ip), vehicle: saline with Tween-80
[3] = dose: 400.0 mg/kg/injection, schedule: Q01DX001 (ip), vehicle: saline with Tween-80
[4] = dose: 60.0 mg/kg/injection, schedule: Q01DX005 (ip), vehicle: saline with Tween-80
[5] = dose: 120.0 mg/kg/injection, schedule: Q01DX005 (ip), vehicle: saline with Tween-80
[6] = dose: 240.0 mg/kg/injection, schedule: Q01DX005 (ip), vehicle: saline with Tween-80
[7] = dose: 100.0 mg/kg/injection, schedule: Q01DX009 (ip), vehicle: saline with Tween-80
[8] = dose: 25.0 mg/kg/injection, schedule: Q01DX009 (ip), vehicle: saline
[9] = dose: 50.0 mg/kg/injection, schedule: Q01DX009 (ip), vehicle: saline
[10] = dose: 100.0 mg/kg/injection, schedule: Q01DX009 (ip), vehicle: saline
[11] = dose: 200.0 mg/kg/injection, schedule: Q01DX009 (ip), vehicle: saline
[12] = dose: 50.0 mg/kg/injection, schedule: Q01DX005 (ip), vehicle: Klucel (hydroxypropylcellulose) (HPC)
[13] = dose: 100.0 mg/kg/injection, schedule: Q01DX005 (ip), vehicle: Klucel (hydroxypropylcellulose) (HPC)
[14] = dose: 200.0 mg/kg/injection, schedule: Q01DX005 (ip), vehicle: Klucel (hydroxypropylcellulose) (HPC)
[15] = dose: 12.5 mg/kg/injection, schedule: Q04DX003 (ip), vehicle: saline
[16] = dose: 25.0 mg/kg/injection, schedule: Q04DX003 (ip), vehicle: saline
[17] = dose: 50.0 mg/kg/injection, schedule: Q01DX009 (ip), vehicle: saline with Tween-80
[18] = dose: 50.0 mg/kg/injection, schedule: Q04DX003 (ip), vehicle: saline
[19] = dose: 100.0 mg/kg/injection, schedule: Q01DX009 (ip), vehicle: Klucel (hydroxypropylcellulose) (HPC)
[20] = dose: 200.0 mg/kg/injection, schedule: Q01DX009 (ip), vehicle: Klucel (hydroxypropylcellulose) (HPC)
[21] = dose: 25.0 mg/kg/injection, schedule: Q01DX005 (ip), vehicle: Klucel (hydroxypropylcellulose) (HPC)
[22] = dose: 100.0 mg/kg/injection, schedule: Q04DX003 (ip), vehicle: saline
[23] = dose: 200.0 mg/kg/injection, schedule: Q04DX003 (ip), vehicle: saline
[24] = dose: 400.0 mg/kg/injection, schedule: Q04DX003 (ip), vehicle: saline

SMILES: Clc1ccc2c(c1)C1CN(C2)Cc2ccc(Cl)cc21
- T/C [1]: 101 % of control
- T/C [2]: 87 % of control
- T/C [3]: 93 % of control

SMILES: COc1ccc(C(CCOS(=O)(=O)c2ccc(Br)cc2)(c2ccc(OC)cc2)c2ccc(OC)cc2)cc1
- T/C [4]: 93 % of control
- T/C [5]: 93 % of control
- T/C [6]: 87 % of control

SMILES: COc1ccc(NC(=O)CCC(=O)Oc2ccccc2)cc1
- T/C [7]: 100 % of control
- T/C (dose: 400.0 mg/kg/injection, schedule: Q01DX009 (ip), vehicle: saline with Tween-80): 94 % of control

SMILES: Nc1ccc2c(c1)C1C(C3C2C2(Cl)C(Cl)=C(Cl)C3(Cl)C2(Cl)Cl)C2(Cl)C(Cl)=C(Cl)C1(Cl)C2(Cl)Cl (stereo not given)
- T/C (dose: 12.5 mg/kg/injection, schedule: Q01DX009 (ip), vehicle: saline): 97 % of control
- T/C [8]: 109 % of control
- T/C [9]: 100 % of control and 95 % of control
- T/C [10]: 100 % of control
- T/C [11]: 98 % of control

SMILES: O=C(O)CSC(CC(=O)O)C(=O)O (stereo not given)
- T/C [8]: 97 % of control
- T/C [9]: 96 % of control
- T/C [10]: 100 % of control
- T/C [11]: 88 % of control

SMILES: Clc1ccc(CSc2nnc3c(n2)[nH]c2ccccc23)cc1
- T/C [12]: 100 % of control
- T/C [13]: 107 % of control
- T/C [14]: 98 % of control

SMILES: CCC(C)N(CCCOC(=O)c1ccc(N)cc1)C(C)CC (stereo not given)
- T/C (dose: 12.5 mg/kg/injection, schedule: Q01DX009 (ip), vehicle: saline with Tween-80): 109 % of control
- T/C [15]: 100 % of control
- T/C (dose: 25.0 mg/kg/injection, schedule: Q01DX009 (ip), vehicle: saline with Tween-80): 100 % of control
- T/C [16]: 91 % of control
- T/C [17]: 104 % of control
- T/C [18]: 91 % of control

SMILES: CCOc1ccc2[nH]c(=S)sc2c1
- T/C (dose: 50.0 mg/kg/injection, schedule: Q01DX009 (ip), vehicle: Klucel (hydroxypropylcellulose) (HPC)): 100 % of control
- T/C [19]: 100 % of control
- T/C [20]: 101 % of control

SMILES: O=C1OCCN1/N=C\c1ccccc1
- T/C [9]: 94 % of control
- T/C [10]: 87 % of control
- T/C [11]: 90 % of control

SMILES: O=C1CSC(c2ccccc2O)N1c1ccc(N2C(=O)CSC2c2ccccc2O)cc1 (stereo not given)
- T/C [1]: 90 % of control
- T/C [2]: 87 % of control
- T/C [3]: 87 % of control

SMILES: CCOC(=O)CSc1ccc(C)cc1
- T/C [8]: 105 % of control
- T/C [9]: 89 % of control
- T/C [10]: 96 % of control
- T/C [11]: 99 % of control

SMILES: COc1ccc(OC)c2c(Cl)cc(NCCCN3CCN(CCCNc4cc(Cl)c5c(OC)ccc(OC)c5n4)CC3)nc12
- T/C [12]: 97 % of control
- T/C [13]: 93 % of control
- T/C [14]: 90 % of control

SMILES: O=C(Nc1nn[nH]n1)c1nc(-c2ccccc2)cc(=O)[nH]1
- T/C [4]: 101 % of control
- T/C [5]: 101 % of control
- T/C [6]: 86 % of control

SMILES: Cc1coc2c1CC1(C)C(CCC(OC(=O)CC(C)C)C1C)C2=O (stereo not given) (tested in a mixture with another compound)
- T/C [19]: 105 % of control
- T/C [20]: 93 % of control

SMILES: CC(=O)C(=Cc1ccc(C)cc1)C(C)=O
- T/C (dose: 50.0 mg/kg/injection, schedule: Q01DX005 (ip), vehicle: saline with Tween-80): 99 % of control
- T/C (dose: 100.0 mg/kg/injection, schedule: Q01DX005 (ip), vehicle: saline with Tween-80): 103 % of control
- T/C (dose: 200.0 mg/kg/injection, schedule: Q01DX005 (ip), vehicle: saline with Tween-80): 110 % of control

SMILES: Clc1cnc2n[se]nc2c1
- T/C (dose: 25.0 mg/kg/injection, schedule: Q04DX002 (ip), vehicle: saline): 106 % of control
- T/C (dose: 50.0 mg/kg/injection, schedule: Q04DX002 (ip), vehicle: saline): 116 % of control
- T/C (dose: 100.0 mg/kg/injection, schedule: Q04DX002 (ip), vehicle: saline): 105 % of control and 114 % of control

SMILES: CN1CCN(c2c(C(=O)Nc3ccc([N+](=O)[O-])cc3)cc([N+](=O)[O-])cc2[N+](=O)[O-])CC1
- T/C [4]: 92 % of control
- T/C [5]: 90 % of control

SMILES: CC1=NN(C(=O)c2ccccc2)C(=O)C1N=Nc1ccc(S(N)(=O)=O)cc1 (stereo not given)
- T/C (dose: 50.0 mg/kg/injection, schedule: Q01DX001 (ip), vehicle: Klucel (hydroxypropylcellulose) (HPC)): 101 % of control
- T/C (dose: 100.0 mg/kg/injection, schedule: Q01DX001 (ip), vehicle: Klucel (hydroxypropylcellulose) (HPC)): 94 % of control
- T/C (dose: 200.0 mg/kg/injection, schedule: Q01DX001 (ip), vehicle: Klucel (hydroxypropylcellulose) (HPC)): 96 % of control
- T/C (dose: 400.0 mg/kg/injection, schedule: Q01DX001 (ip), vehicle: Klucel (hydroxypropylcellulose) (HPC)): 90 % of control

SMILES: O=C1OC2CC13Cc1ccccc1C3(C(=O)O)CC2I (stereo not given)
- T/C [4]: 104 % of control
- T/C [5]: 106 % of control
- T/C [6]: 100 % of control

SMILES: O=C1c2cccc3c2C2(O)c4c1cccc4C(=O)c1cccc(c12)C3=O
- T/C [17]: 100 % of control
- T/C [7]: 90 % of control

SMILES: O=C1C2C3C=CC(C2C(=O)N1COP(=O)(O)O)C1C2C(=O)N(COP(=O)(O)O)C(=O)C2C31 (stereo not given)
- T/C (dose: 20.0 mg/kg/injection, schedule: Q01DX009 (ip), vehicle: water): 112 % of control
- T/C (dose: 40.0 mg/kg/injection, schedule: Q01DX009 (ip), vehicle: water): 112 % of control
- T/C (dose: 80.0 mg/kg/injection, schedule: Q01DX009 (ip), vehicle: water): 112 % of control and 90 % of control
- T/C (dose: 160.0 mg/kg/injection, schedule: Q01DX009 (ip), vehicle: water): 165 % of control
- T/C (dose: 240.0 mg/kg/injection, schedule: Q01DX009 (ip), vehicle: water): 152 % of control

SMILES: C[CH2][Sn]1([Cl])[O]CCNCC[O]1
- T/C [21]: 103 % of control
- T/C [12]: 103 % of control and 113 % of control
- T/C [13]: 116 % of control
- T/C [14]: 122 % of control

SMILES: O=C1CCC(O)N1CN1C(=O)CCC1O (stereo not given)
- T/C (dose: 60.0 mg/kg/injection, schedule: Q01DX005 (ip), vehicle: saline): 100 % of control
- T/C (dose: 120.0 mg/kg/injection, schedule: Q01DX005 (ip), vehicle: saline): 108 % of control
- T/C (dose: 240.0 mg/kg/injection, schedule: Q01DX005 (ip), vehicle: saline): 100 % of control

SMILES: COc1cc(C=Nc2cccc(F)c2)ccc1N(CCCl)CCCl
- T/C (dose: 0.25 mg/kg/injection, schedule: Q01DX009 (ip), vehicle: other): 109 % of control
- T/C (dose: 0.5 mg/kg/injection, schedule: Q01DX009 (ip), vehicle: other): 113 % of control
- T/C (dose: 1.0 mg/kg/injection, schedule: Q01DX009 (ip), vehicle: other): 122 % of control

SMILES: CC(=O)N1CCCC2=C1CCCCCC2
- T/C [15]: 99 % of control
- T/C [16]: 104 % of control
- T/C [18]: 104 % of control
- T/C [22]: 117 % of control
- T/C [23]: 101 % of control
- T/C [24]: 100 % of control

SMILES: O=c1c2cncnc2sc2nccn12
- T/C [4]: 99 % of control
- T/C [5]: 98 % of control
- T/C [6]: 95 % of control

SMILES: CC(C)OC(=O)C#N
- T/C (dose: 1.56 mg/kg/injection, schedule: Q01DX005 (ip), vehicle: saline with Tween-80): 100 % of control
- T/C (dose: 3.12 mg/kg/injection, schedule: Q01DX005 (ip), vehicle: saline with Tween-80): 101 % of control
- T/C (dose: 6.25 mg/kg/injection, schedule: Q01DX005 (ip), vehicle: saline with Tween-80): 100 % of control
- T/C (dose: 12.5 mg/kg/injection, schedule: Q01DX005 (ip), vehicle: saline with Tween-80): 98 % of control

SMILES: COC(=O)Cn1/c(=N\N=C\c2ccc(OC)cc2)sc2ccccc21
- T/C [1]: 101 % of control
- T/C [2]: 101 % of control
- T/C [3]: 92 % of control

SMILES: COC(=O)Nc1nc2ccc(C3c4c(n[nH]c4C)CC(C)(O)C3C(C)=O)cc2[nH]1 (stereo not given)
- T/C [4]: 98 % of control
- T/C [5]: 101 % of control
- T/C [6]: 101 % of control

SMILES: CCN(CC)SC(=S)SN(CC)CC
- T/C [18]: 98 % of control
- T/C [22]: 96 % of control
- T/C [23]: 98 % of control
- T/C [24]: 104 % of control

SMILES: N#CSCCC(=O)Nc1ccccc1
- T/C (dose: 6.25 mg/kg/injection, schedule: Q01DX005 (ip), vehicle: Klucel (hydroxypropylcellulose) (HPC)): 102 % of control
- T/C (dose: 12.5 mg/kg/injection, schedule: Q01DX005 (ip), vehicle: Klucel (hydroxypropylcellulose) (HPC)): 101 % of control
- T/C [21]: 104 % of control

From PubChem BioAssay AID330 (DTP/NCI, 2004)
